These results are taken from patent US20100215618A1, “NOVEL COMPOUNDS - 644” (Arrow Therapeutics Limited, priority 2009, published 2010).

Structures are written as SMILES. pIC50: −log10 of the molar value. Where two headings read alike, the source gives them in different places. Some results are limits rather than exact numbers.

The test system of data set [1] is HCV replicon cells Huh 9B (genotype 1b). Nature of the data set: 1b Replicon Assay (luciferase readout). It is filed as cell-based. The conditions noted are these: Hepatitis C virus, Huh 9B replicon cells, 72 h, luciferase activity; for pIC50: read-out: HCV IC50 1b Replicon; for IC50: read-out: pIC50 1b Replicon (converted).
Data set [2] relates to HCV replicon cells Huh 9B. The class given is cell-based. The conditions noted are these: Huh 9B replicon cells, 72 h, methylene blue, total cell area reduced by 50%. The method, then:
HCV replicon cells Huh 9B (ReBlikon), containing the firefly luciferase-ubiquitin-neomycin phosphotransferase fusion protein and EMCV-IRES driven HCV polyprotein with cell culture adaptive mutations.
Replicon cells were trypsinised and counted. Cells were diluted to 100,000 cells/ml and 100 μl used to seed one opaque white 96-well plate (for the replicon assay) and one flat-bottomed clear plate (for the tox assay) for every five compounds to be tested for IC50. Wells G12 and H12 were left empty in the clear plate as the blank. Plates were then incubated at 37° C./5% CO2 for 24 h.
On the following day compound dilutions were prepared in medium at twice their desired final concentration in a clear round bottomed plate. All dilutions have a final DMSO concentration of 1%.
Controls and compounds were transferred from the dilution plates to the assay plates (containing the cells) at 100 μl/well in duplicate wells.
Exception: no compound was added to wells A1 and A2 of either plate and 100 μl of 1% DMSO was added to these instead. Plates were then incubated at 37° C./5% CO2 for 72 h.
The clear plate was stained with 100 μA 0.5% methylene blue in 50% ethanol at room temperature for 1 h, followed by solvation of the absorbed methylene blue in 100 μl per well of 1% lauroylsarcosine. Absorbance of the plate was measured on a microplate spectrophotometer (Molecular Devices) and the absorbance for each concentration of compound expressed as a proportion of the relative DMSO control. The TD50, the is concentration of drug required to reduce the total cell area by 50% relative to the DMSO controls, was calculated by plotting the absorbance at 620 nm after background substraction against drug concentration.
A general note: Replicon systems follow genome replication, usually without infectious particles.

A short description of data set [3]: in vitro. The conditions noted are these: dog, MDCK. It is filed as in vitro ADME, Canine. The method, then:
Cells used: MDCK (Madin-Darby Canine Kidney) cells, ATCC collection # CCL-34, are used to model the intestinal barrier. Cell culture conditions: cells were cultured at 37° C. in a 5% CO2 environment and split twice a week on seeding at 4×10^5 cells/flask (75 cm^2) on day 1 and 2×10^5 cells/flask on day 4. The culture medium consisted of MEM+Earle's-L Glutamine (Gibco #21090-022) supplemented with 10% Australian Fetal Calf Serum (Sigma #F6178), 2 mM L-Glutamine (Gibco #25030-024) and 1× Non Essential Amino Acids (Gibco #11140-035)
On day 1, a 24-well plate (Sarstedt, #83.1836.300) was filled with individual 3 lam pore membrane inserts (Millipore, #PITP 012 50). Each plate allows the testing of a cocktail of 3 control compounds and 11 test compounds in duplicate. The wells (outside the inserts) were filled with 500 μl of culture medium.
A flask of cells was trypsinised and a cell count carried out. Cells were diluted to 1.2×10^5 cells/ml (1×10^5 cells/cm^2) and 500 μl dispensed in each insert on the 24-well plate. The plate was incubated at 37° C. in a 5% CO2 environment for 48 hours.
On day 3, the culture medium was removed from the wells, then the inserts and is replaced with fresh culture medium in the wells, then the inserts (500111 per well and insert) The plate was incubated at 37° C. in a 5% CO2 environment for 24 hours.
On day 4, the controls cocktail and test compounds solutions were made up in HBSS buffer (Hank's Balanced Salt Solution, Gibco #14025-050) at 1011M. The final controls and test compounds concentration in the assay was 10 μM, and DMSO concentration maintained at 0.1% (0.3% for the controls cocktail). The controls cocktail was made up of Atenolol (Sigma # A-7655), Dexamethasone (Sigma #D-1756) and Propranolol (Sigma # P-0884).
A 24-well plate was filled with 500 μl of HBSS buffer per well (assay plate) The culture medium was removed from the wells and inserts. The inserts were washed three times with approximately 500 μl of HBSS buffer. The inserts were transferred to the assay plate. Controls cocktail and test compounds solutions were dispensed inside the inserts (500 μl per insert), in duplicates. The assay plate was incubated at 37° C. in a 5% CO2 environment for 2 hours.
After 2 hours, the inserts were removed from the assay plate and transferred into a new 24-well plate (wash plate) The assay plate containing the receiver solutions was left aside for later sampling. To measure the mass balance, 150 μl were sampled from each insert (donor solutions) and dispensed into 150 μl of HPLC-grade Acetonitrile (Fisher Scientific) containing an internal standard and 0.05% formic acid.
The donor solutions were aspirated and discarded from each insert, and the inserts washed once with approximately 500 μl of HBSS buffer. A 24-well plate was filled with 500 μl of HBSS buffer per well (monolayer integrity plate) A Lucifer Yellow (Sigma #L0144) solution was made up at 1001.1M in HBSS buffer. The empty inserts were transferred into the monolayer integrity plate and filled with 500 μl of the Lucifer Yellow solution to determine the cell monolayers integrity and leftover of the solution was kept in a fridge. The plate was incubated at 37° C. in a 5% CO2 environment for 2 hours.
In the meantime, 150 μl were sampled from the assay plate (receiver solutions) and dispensed into 150 μl of HPLC-grade Acetonitrile containing an internal standard and 0.05% formic acid. A calibration curve was made for each mix of compounds (as appropriate depending on compounds molecular weights) A 10 μM mix of compounds in HBSS buffer was diluted 1:1 in HPLC-grade Acetonitrile containing an internal standard and 0.05% formic acid. A 1:1 mix of HBSS buffer and HPLC-grade Acetonitrile containing an internal standard and 0.05% formic acid was made up and used to make up the calibration curve (2 fold dilutions), with concentrations ranging from 10 μM to 0.078 μM. […]

With `COC(=O)N[C@@H](C(=O)N1CCC[C@H]1c1ncc(-c2ccc(-c3ccc(C(=O)Nc4ccc(CN5CCS(=O)(=O)CC5)cc4)cc3)cc2)[nH]1)C(C)C` [Example 13, Methyl N-[(1R)-1-[(2S)-2-[5-[4-[4-[[4-[(1,1-dioxo-1,4-thiazinan-4-yl)methyl]phenyl]carbamoyl]phenyl]phenyl]-1H-imidazol-2-yl]pyrrolidine-1-carbonyl]-2-methyl-propyl]carbamate], in data set [1], the negative logarithm of the IC50 (pIC50) was 7.38 and the IC50 is 41.7 nM. In addition, the “HCV TD50 Replicon” value in data set [2] was >25 µM. Besides, the Papp at 2 h, 10 µM in data set [3] was determined as 0.3 ×10⁻⁶ cm/s.

`COC(=O)N[C@H](CC(C)C)C(=O)N1CCC[C@H]1c1ncc(-c2ccc(-c3ccc(C(=O)Nc4ccc(CN5CCS(=O)(=O)CC5)cc4)cc3)cc2)[nH]1` [Example 15, Methyl N-[(1R)-1-[(2S)-2-[5-[4-[4-[[4-[(1,1-dioxo-1,4-thiazinan-4-yl)methyl]phenyl]carbamoyl]phenyl]phenyl]-1H-imidazol-2-yl]pyrrolidine-1-carbonyl]-3-methyl-butyl]carbamate]: in data set [1], the pIC50 is 8.42 and the IC50 is 3.8 nM. The “HCV TD50 Replicon” value in data set [2] was >25 µM. In data set [3], this molecule had a Papp at 2 h, 10 µM of 0.3 ×10⁻⁶ cm/s.

`COC(=O)N[C@H](C(=O)N1CCC[C@H]1c1ncc(-c2ccc(-c3ccc(C(=O)Nc4ccc(CN5CCS(=O)(=O)CC5)cc4)cc3)cc2)[nH]1)[C@@H](C)O` [Example 17, Methyl N-[(1S,2R)-1-[(2S)-2-[5-[4-[4-[[4-[(1,1-dioxo-1,4-thiazinan-4-yl)methyl]phenyl]carbamoyl]phenyl]phenyl]-1H-imidazol-2-yl]pyrrolidine-1-carbonyl]-2-hydroxy-propyl]carbamate]: in data set [1], the pIC50 is 9.52 and the IC50 is 0.302 nM. The “HCV TD50 Replicon” value in data set [2] stood at 18.4 µM. The molecule further showed a Papp at 2 h, 10 µM in data set [3] of 0.4 ×10⁻⁶ cm/s.

In the case of `COC(=O)N[C@@H](C)C(=O)N1CCC[C@@H]1c1ncc(-c2ccc(-c3ccc(C(=O)Nc4ccc(CN5CCS(=O)(=O)CC5)cc4)cc3)cc2)[nH]1` [Example 21, Methyl N-[(1S)-2-[(2R)-2-[5-[4-[4-[[4-[(1,1-dioxo-1,4-thiazinan-4-yl)methyl]phenyl]carbamoyl]phenyl]phenyl]-1H-imidazol-2-yl]pyrrolidin-1-yl]-1-methyl-2-oxo-ethyl]carbamate], in data set [1], the pIC50 is 6.38 and the IC50 was 417 nM. Besides, the Papp at 2 h, 10 µM in data set [3] is 1.4 ×10⁻⁶ cm/s.

Turning to `COC(=O)N[C@H](C(=O)N1CCC[C@@H]1c1ncc(-c2ccc(-c3ccc(C(=O)Nc4ccc(CN5CCS(=O)(=O)CC5)cc4)cc3)cc2)[nH]1)C(C)(C)C` [Example 22, Methyl N-[(1S)-1-[(2R)-2-[5-[4-[4-[[4-[(1,1-dioxo-1,4-thiazinan-4-yl)methyl]phenyl]carbamoyl]phenyl]phenyl]-1H-imidazol-2-yl]pyrrolidine-1-carbonyl]-2,2-dimethyl-propyl]carbamate], in data set [1], the pIC50 was 6.58 and the IC50 was 263 nM. In addition, the Papp at 2 h, 10 µM in data set [3] worked out at 0.55 ×10⁻⁶ cm/s.

One may read the pIC50 as the negative decadic logarithm of the IC50, by convention in mol/L. One may read the Papp as the rate of passage across a membrane or cell layer, normalised by area and donor concentration. The low end stands for poor permeation, the high end for ready permeation.
